The results in this text go back to patent US20110123490A1, “HE[…] COMPOUNDS” (priority 2009, published 2011).

Series [1] concerns the target T1, HCV polymerase (NS5B570n-Con1) (Hepatitis C virus genotype 1b, UniProt Q9WMX2).
T1 construct: contains a 21 amino acid deletion at the C-terminus relative to the full-length HCV polymerase; 6-histidine (N); made in house; host or cells: E. coli BL21(DE) pLysS, plasmid pET17b
The series is described as follows: HCV NS5B RNA polymerase activity assay (incorporation of radiolabeled nucleotide into RNA). Format: biochemical, HCV Con1 strain. The method, then:
The enzymatic activity of HCV polymerase (NS5B570n-Con1) was measured as the incorporation of radiolabeled nucleotide monophosphates into acid insoluble RNA products. Unincorporated radiolabeled substrate was removed by filtration and scintillant was added to the washed and dried filter plate containing radiolabeled RNA product. The amount of RNA product generated by NS5B570-Con1 at the end of the reaction was directly proportional to the amount of light emitted by the scintillant.
The N-terminal 6-histidine tagged HCV polymerase, derived from HCV Con1 strain, genotype 1b (NS5B570n-Con1) contains a 21 amino acid deletion at the C-terminus relative to the full-length HCV polymerase and was purified from E. coli strain BL21(DE) pLysS. The construct, containing the coding sequence of HCV NS5B Con1 (GenBank accession number AJ242654) was inserted into the plasmid construct pET17b, downstream of a T7 promoter expression cassette and transformed into E. coli. A single colony was grown overnight as a starter culture and later used inoculate 10 L of LB media supplemented with 100 μg/mL ampicillin at 37° C. Protein expression was induced by the addition of 0.25 mM isopropyl-β-D-thiogalactopyranoside (IPTG) when optical density at […] of the culture was between 0.6 and 0.8 and cells were harvested after 16 to 18 h at 30° C. NS5B570n-Con1 was purified to homogeneity using a three-step protocol including subsequent column chromatography on Ni-NTA, SP-Sepharose HP and Superdex 75 resins.
Each 50 μL enzymatic reaction contained 20 nM RNA template derived from the complementary sequence of the Internal Ribosome Entry Site (cIRES), 20 nM NS5B570n-Con1 enzyme, 0.5 μCi of tritiated UTP (Perkin Elmer catalog no. TRK-412; specific activity: 30 to 60 Ci/mmol; stock solution concentration from 7.5×10^−5 M to 20.6×10^−6 M), 1 μM each ATP, CTP, and GTP, 40 mM Tris-HCl pH 8.0, 40 mM NaCl, 4 mM DTT (dithiothreitol), 4 mM MgCl2, and 5 μL of compound serial diluted in DMSO. Reaction mixtures were assembled in 96-well filter plates (cat #MADVN0B, Millipore Co.) and incubated for 2 h at 30° C. Reactions were stopped by addition of 10% final (v/v) trichloroacetic acid and incubated for 40 min at 4° C. […]
The amount of light emitted from the scintillant was converted to counts per minute (CPM) on a Topcount® plate reader (Perkin-Elmer, Energy Range: Low, Efficiency Mode Normal, Count Time: 1 min, Background Subtract: none, Cross talk reduction: Off).
Data was analyzed in Excel® (Microsoft®) and ActivityBase® (Idbs®). […] All data was expressed as a percentage of the positive control. […]

For series [2], the system named is HCV replicon cells (2209-23), genotype 1b replicon in Huh7 cells. The series is described as follows: HCV replicon assay (Renilla luciferase reporter). Format: cell-based, HCV genotype 1b. The conditions noted are these: Hepatitis C virus, Huh-7, 72 h; 2209-23 cells, three days incubation, luciferase readout.
The nature of series [3]: in vitro. The conditions noted are these: human.

`CC1(C)COc2c(-n3ccc(=O)[nH]c3=O)cc(-c3ccc4cc(NS(C)(=O)=O)ccc4c3)cc21` [Compound I-1, N-{6-[7-(2,4-Dioxo-3,4-dihydro-2H-pyrimidin-1-yl)-3,3-dimethyl-2,3-dihydro-benzofuran-5-yl]-naphthalen-2-yl}-methanesulfonamide] gave an IC50 in series [1] of 0.5 nM.
For the compound `COc1c(-c2ccc3cc(NS(C)(=O)=O)ccc3c2)cc(-n2ccc(=O)[nH]c2=O)c2c1C(C)(C)CO2` [Compound I-2, N-{6-[7-(2,4-Dioxo-3,4-dihydro-2H-pyrimidin-1-yl)-4-methoxy-3,3-dimethyl-2,3-dihydro-benzofuran-5-yl]-naphthalen-2-yl}-methanesulfonamide], the IC50 in series [2] turned out to be 5.2 nM; in series [1], 0.6 nM. Also, the CC50 in series [3] turned out to be 12000 nM.
Regarding `COc1c(-c2ccc3cc(NS(C)(=O)=O)ccc3c2)cc(N2CCC(=O)NC2=O)c2c1C(C)(C)CO2` [Compound I-3, N-{6-[7-(2,4-Dioxo-tetrahydro-pyrimidin-1-yl)-4-methoxy-3,3-dimethyl-2,3-dihydro-benzofuran-5-yl]-naphthalen-2-yl}-methanesulfonamide], the IC50 in series [1] amounted to 4.7 nM.
On to `CC1(C)COc2c(-c3ccc4cc(NS(C)(=O)=O)ccc4c3)cc(-n3ccc(=O)[nH]c3=O)cc21` [Compound I-4, N-{6-[5-(2,4-Dioxo-3,4-dihydro-2H-pyrimidin-1-yl)-3,3-dimethyl-2,3-dihydro-benzofuran-7-yl]-naphthalen-2-yl}-methanesulfonamide], for which the values for the IC50 in series [2] and in series [1] were 106 nM and 0.9 nM, respectively. The compound further showed a CC50 in series [3] of 2700 nM.
